The test has as its target T1, MLKL executioner domain (Homo sapiens, UniProt Q8NB16).
T1 construct: 80 µM MLKL N-terminal executioner domain (residues 1 to 154) was used; GST (thrombin cleavage site) (cleaved yes)
T1 sequence (Q8NB16 1-154): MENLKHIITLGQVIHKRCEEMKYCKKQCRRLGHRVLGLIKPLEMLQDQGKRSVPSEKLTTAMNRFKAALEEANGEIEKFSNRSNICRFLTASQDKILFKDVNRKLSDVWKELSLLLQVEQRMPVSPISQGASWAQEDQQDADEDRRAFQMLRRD
Description: NMR diffusion experiments (hydrodynamic radius). It is filed as biochemical. As for the experimental part: To further characterize the oligomerized MLKL executioner domain, NMR diffusion experiments were conducted directly succeeding the end of the real-time NMR series (orange dots in Fig. 5A). This was compared with a fresh sample of unliganded MLKL executioner domain (black dots in Fig. 5A).
In a next step, we conducted NMR diffusion experiments with NM concentrations above and below the critical micelle concentration of 6 mM, to find out if the increased hydrodynamic radius of the MLKL executioner domain is dependent on the presence of micelles. […] The presence of 500 µM IP6 and 500 µM Cpd 3 had no influence on the hydrodynamic radius of NM (SI Appendix, Fig. S12). […] Therefore, the oligomerization depends on micelles, and the observed species is most likely a micelle-integrated oligomeric MLKL executioner domain. […]
NMR diffusion experiments were recorded as pseudo two-dimensional experiments with varying gradient strength either as a ^15N-filtered NMR experiment ([42]) (recorded with ^15N-labeled protein). […]
where d is the diffusion constant. […] The hydrodynamic radius was calculated by using the determined diffusion constants of the component of interest (d) and dioxane (ddioxane) and the known hydrodynamic radius of dioxan (2.12 Å) ([23]) using Eq. 4. rH=2.12Å⋅ddioxane/d, [4] […]

Each structure is given as a SMILES string.

Consider `Cn1c(=O)c2c(nc(S(C)(=O)=O)n2C)n(CC#Cc2cccc(O)c2)c1=O` [Cpd 3], for which the “Oligomeric state of the MLKL executioner domain” value (12 mM NM + 500 µM IP6 + 500 µM Cpd 3, after 2 d of incubation, 57 Å without compound) is “completely monomeric”. In addition, the “Hydrodynamic radius of the MLKL executioner domain” value (complex with 500 µM Cpd 3, 12 mM NM + 50 µM IP6, after time course, 60 Å without Cpd 3, 19 Å unliganded) was 30 Å.

Source of the values: article PMC7777204, “Locking mixed-lineage kinase domain-like protein in its auto-inhibited state prevents necroptosis” (Proceedings of the National Academy of Sciences of the …, 2020).
